Test results from patent US20220144768A1, “SOLID STATE FORMS OF SIPONIMOD” (DR. REDDY'S LABORATORIES LIMITED, priority 2019, published 2022).

Assay: Solid form stability on storage, analyzed using PXRD
Assay type: physicochemical
Description: The crystalline Form S2 of Siponimod prepared by the process of the present application is kept at about 25° C. After three months the solid was analyzed using PXRD. […] The crystalline Form S2 of Siponimod prepared by the process of the present application is kept at about 70° C. After three months the solid was analyzed using PXRD.
In another aspect, the present application provides stable amorphous Siponimod. […] The amorphous Siponimod prepared by the process of the present application is kept in a […] at about 5° C. After one year the solid was analyzed using PXRD.
The amorphous form of siponimod prepared in example-3 was kept in an amber colored glass bottle at 2-8° C. for one year and the solid was analyzed using PXRD.

Row | SMILES | stability of the amorphous form (time stable) (amorphous form, storage, PXRD) | solid form after storage (PXRD) (kept in a freezer at about 5° C., after one year, PXRD shown in FIG. 7) | stability of the crystalline form (time stable) (crystalline Form S2, storage, PXRD) | solid form after storage (PXRD) (kept at about 25° C., after three months, PXRD matches FIG. 3) | solid form after storage (PXRD) (kept at about 70° C., after three months, PXRD matches FIG. 3)
1 | CCc1cc(/C(C)=N/OCc2ccc(C3CCCCC3)c(C(F)(F)F)c2)ccc1CN1CC(C(=O)O)C1 [amorphous Siponimod] | stable for at least one year | remains in amorphous form | – | – | –
2 | CCc1cc(/C(C)=N/OCc2ccc(C3CCCCC3)c(C(F)(F)F)c2)ccc1CN1CC(C(=O)O)C1 [crystalline Form S2 of Siponimod] | – | – | stable for at least three months | remains in crystalline Form S2 | remains in crystalline Form S2
